Laboratory results from patent publication US8765459B2, “Apparatus and methods for manipulation and optimization of biological systems” (The Regents of the University of California, priority 2004, dated 2014).

B1: TNFβ: cytokine used as stimulus of NF-κB activity (protein, UniProt P01374 35-205, looked up)
Lymphotoxin-alpha: LPGVGLTPSAAQTARQHPKMHLAHSTLKPAAHLIGDPSKQNSLLWRANTDRAFLQDGFSLSNNSLLVPTSGIYFVYSQVVFSGKAYSPKATSSPLYLAHEVQLFSSQYPFHVPLLSSQKMVYPGLQEPWLHSMYHGAAFQLTQGDQLSTHTDGIPHLVLSPSTVFFGAFAL
B2: IL-1α: cytokine used as stimulus of NF-κB activity (protein, UniProt P01583 113-271, looked up)
Interleukin-1 alpha: SAPFSFLSNVKYNFMRIIKYEFILNDALNQSIIRANDQYLTAAALHNLDEAVKFDMGAYKSSKDDAKITVILRISKTQLYVTAQDEDQPVLLKEMPEIPKTITGSETNLLFFWETHGTKNYFTSVAHPNLFIATKQDYWVCLAGGPPSITDFQILENQA

How the values were obtained:
NF-κB [1] = assay: Gur Game closed-loop optimization of cytokine combination, NF-κB GFP reporter in microfluidic channels; assay type: cell-based; settings: 293T cells with κB4-GFP reporter; 1 h stimulation, GFP read 7 h after; determined by final probability distributions of Gur Game search
Experimental: To implement the Gur Game algorithm, each cytokine was represented by an automaton with 10 discrete states (0, 0.25, 0.5, 1, 2.5, 5, 10, 25, 50, and 100 ng/ml) as shown in FIG. 6. At each iteration, a combination of cytokines at their respective states was applied to stimulate the cells for one hour. […] The GFP expression kinetics is thought to be controlled by protein folding and degradation rates, while the amount of transcription (GFP intensity) is thought to provide an indication of the NF-κB activity. The peak intensities were normalized as the reward function for Gur Game. The reward function maps the system state from 0 to 1, with high GFP intensity corresponds to values nearer 1. For each automaton, a random number from 0 to 1 is chosen and compared with the reward value. The next states of the automata were determined according to a prescribed manner (see FIG. 1). The process was repeated for each cytokine during each iteration.
(§1) Microfluidic systems have been proven to be effective for manipulating different biological objects, such as cells and molecules. In this example, the optimization experiments were conducted inside microfluidic channels to facilitate real-time monitoring and dynamic stimulation of the cells. (In FIGS. 7a, the concentrations of individual cytokines are indicated as follows: TNFα concentrations are plotted as solid squares; TNFβ concentrations are plotted as solid circles; IL-1α concentrations are plotted as solid triangles; IL-1β concentrations are plotted as inverted triangles; EFG concentrations are plotted as open squares; and BAFF concentrations are plotted as open circles.) The initial concentrations of the cytokines were 2.5 ng/ml. In order to monitor the activity of the NF-κB, a plasmid with a green fluorescent protein (GFP) reporter gene was placed in the 293T cell. The GFP expression is controlled by a promoter which consisted of a kappa enhancer element (κB4). Similar configurations have been applied in other studies where the GFP fluorescence intensity was able to reflect the cellular NF-κB activity. In addition, computational analysis was performed to correlate the relationship between the expression level of GPF and the activity of NF-κB. Numerical simulation indicated the best duration and time for cytokine stimulation and GFP intensity measurement. The GFP fluorescence intensity of each cell was recorded 7 hours after the stimulation as shown in FIG. 7B (data represent the average intensity of 40-128 cells).
The Gur Game was used to determine the cytokine concentrations in subsequent iterations to probabilistically drive the system toward a high GFP output, i.e. high NF-κB activity. FIG. 6 is a flow chart illustrating an exemplary Gur Game Algorithm, the algorithm used in this example. A detailed description of this exemplary algorithm is set forth above. The peak intensities were normalized as the reward function for this exemplary Gur Game algorithm. The reward function maps the system state from 0 to 1, with high GFP intensity corresponds to values nearer 1. For each automaton, a random number from 0 to 1 is chosen and compared with the reward value.
The next states of the automata were determined according to a prescribed manner, as illustrated in FIG. 7. The process was repeated for each cytokine during each iteration. Each cytokine as represented by an automaton. The numbers represent the concentration of the cytokines, in ng/ml. During each iteration, a random number was generated for each automaton. The numbers were compared to the reward value. If the reward value was larger than the random number, the automaton was rewarded (win). Otherwise, the automaton was penalized (lose). The automaton then decided the state in the next iteration according to the automaton design. Generally, the state moves toward center if penalized, and away the center if rewarded.
Referring to FIGS. 8aand 8b, initially, the system rejected several cytokine combinations with seemingly high outputs. […]

NF-κB [2] = assay: Sensitivity analysis of individual cytokines in the potent combination, NF-κB GFP reporter, 96-well plates; assay type: cell-based; settings: 293T cells; for effect on NF-κB activity when varied within the potent cytokine combination / decrease in fluorescence intensity on elimination of the cytokine from the cytokine combination: 96-well plates, other cytokines held constant, 1 h stimulation, fluorescence 7 h after
Experimental: as §1
Experiments were conducted in 96-well plates. The cells were stimulated with the appropriate concentration of cytokines for one hour and washed with fresh media.

Molecule | concentration in the most potent cytokine combination for activating NF-κB (NF-κB [1]) [ng/mL] | effect on NF-κB activity alone, without the potent cytokine combination (NF-κB [2]) | effect on NF-κB activity when varied within the potent cytokine combination (NF-κB [2]) | decrease in fluorescence intensity on elimination of the cytokine from the cytokine combination (NF-κB [2]) [%]
BAFF: cytokine tested in the combination for NF-κB activity | 2.5 | minimal effect | minimal effect | 
IL-1β: cytokine used as stimulus of NF-κB activity | 25 |  | not sensitive to their concentrations in the range of 25-50 ng/ml | ~30
TNFα | 25 |  | most sensitive in the combination | ~50
epidermal growth factor [EGF] | 2.5 | did not show a strong effect | decreased the NF-κB activity with increasing dose concentration | 
B1 | 50 |  |  | ~30
B2 | 50 |  | not sensitive to their concentrations in the range of 25-50 ng/ml | ~30
